Assay results published in patent US20220387620A1, “NANOSTRUCTURED DRUG DELIVERY SYSTEM AS A MULTIFUNCTIONAL PLATFORM FOR THERAPY” (priority 2019, published 2022).

Assays:
U-87 MG cells = assay: Resazurin cell viability / cytotoxicity assay; assay type: cell-based, human; conditions: free drug
Description: Regarding cell viability, U-87 MG cells were cultured in DMEM/F-12 medium, supplemented with 10% (v/v) FBS, 1% (v/v) penicillin-streptomycin solution and sodium bicarbonate. Cells were maintained at 37° C. in a humidified atmosphere containing CO2 (5%). The resazurin assay was used to determine the cytotoxicity of NLCs. Briefly, 2000 cells per well were seeded in a 96 well plate and incubated for 24 h or 72 h after the medium was replaced with increasing concentrations of free drugs or NLCs. Subsequently, the medium was removed and the cell viability determined. For this purpose, 100 μL of 10% (w/v) resazurin solution in DMEM/F 12 was added to the cells and incubated for approximately 2 h, at 37° C. The enzymatic reduction of resazurin to resorufin was analyzed by UV/Vis spectrophotometry at 570 nm and 600 nm. Cell viability was assessed indirectly according to equation 1.

human blood = assay: In vitro hemolytic activity (NCL ITA-1 protocol); assay type: cell-based; conditions: positive control, 3 h at 37° C.
Description: The haemolytic behaviour of NLCs formulations was explored following the Nanotechnology Characterization Lab (NCL) protocol for analysis of Haemolytic Properties of Nanoparticles (NCL ITA-1 Version 1.2), with slight modifications. Briefly, fresh human blood was drawn from healthy participants in the Laboratory of Clinical Analysis of the Faculty of Pharmacy of the University of Coimbra, after a written informed consent was obtained from all individuals. The venous blood, collected in heparinised vacutainer tubes, was properly diluted in PBS to final a concentration of 10 mg/mL of total blood haemoglobin, and incubated with the NLCs at eight different concentrations, regarding ATO content for 3 h at 37° C. Aqueous and acetate buffered polysorbate 80 solutions were also tested in 15 and 100 μg/mL. PBS and Triton™ X-100 were used as negative and positive controls, respectively, with additional no-blood controls being used due to possible interference of CUR at 540 nm. Following incubation, cell-free supernatants were obtained and any plasma-free haemoglobin and metabolites were converted into cyanmethaemoglobin (CMH), using Drabkin's reagent. The detection of CMH was conducted at 540 nm and the percentage of haemolysis (%) was calculated taking into account the equation 2.

Compound: CC(C)c1c(C(=O)Nc2ccccc2)c(-c2ccccc2)c(-c2ccc(F)cc2)n1CC[C@@H](O)C[C@@H](O)CC(=O)O [ATO, atorvastatin calcium]
- IC50 (U-87 MG cells; 24 h of incubation): 134 ± 27 µM
- IC50 (U-87 MG cells; 72 h of incubation): 25 ± 5 µM

Compound: COc1cc(/C=C/C(=O)CC(=O)/C=C/c2ccc(O)c(OC)c2)ccc1O [CUR, curcumin]
- IC50 (U-87 MG cells; Homo sapiens, U-87 MG, 24 h of incubation): 86 ± 35 µM
- IC50 (U-87 MG cells; Homo sapiens, U-87 MG, 72 h of incubation): 77 ± 1 µM

Compound: Triton™ X-100
- hemolysis (human blood): complete hemolysis
